The text below walks through data of patent US20250195521A1 (Revolution Medicines, Inc., priority 2020, published 2025).

Molecules are shown by their SMILES.

Holding throughout (assay type): cell-based, human
Test [1] has as its system AsPC-1 (K-Ras G12D). The experiment in a line: CellTiter-Glo cell viability assay, AsPC-1. Particulars: Homo sapiens, ASPC1, 120 h, read-out: AsPC-1 Cell Viability IC50. How it is done: (§1) Note—The following protocol describes a procedure for monitoring cell viability of K-Ras mutant cancer cell lines in response to a compound of the invention. Other RAS isoforms may be employed, though the number of cells to be seeded will vary based on cell line used.
(§2) Test compounds (132.5 nL) were directly dispensed into the assay plates containing cells. […] On day 5, assay plates and their contents were equilibrated to room temperature for approximately 30 minutes. […] Luminescence was measured using the PerkinElmer Enspire. Data were normalized by the following: (Sample signal/Avg. DMSO)*100. The data were fit using a four-parameter logistic fit.

Test [2] deals with AsPC-1 (K-Ras G12D). The experiment in a line: Potency assay: pERK. Particulars: Homo sapiens, ASPC1, read-out: pERK EC50. How it is done:
The purpose of this assay is to measure the ability of test compounds to inhibit K-Ras in cells. […] This procedure measures a decrease in cellular pERK in response to test compounds. The procedure described below in NCI-H358 cells is applicable to K-Ras G12C.
NCI-H358 cells were grown and maintained using media and procedures recommended by the ATCC. On the day prior to compound addition, cells were plated in 384-well cell culture plates (40 μl/well) and grown overnight in a 37° C., 5% CO2 incubator. Test compounds were prepared in 10, 3-fold dilutions in DMSO, with a high concentration of 10 mM. On the day of assay, 40 nL of test compound was added to each well of cell culture plate using an Echo550 liquid handler (LabCyte®). Concentrations of test compound were tested in duplicate. After compound addition, cells were incubated 4 hours at 37° C., 5% CO2. Following incubation, culture medium was removed and cells were washed once with phosphate buffered saline.
In some experiments, cellular pERK level was determined using the AlphaLISA SureFire Ultra p-ERK1/2 Assay Kit (PerkinElmer). Cells were lysed in 25 μL lysis buffer, with shaking at 600 RPM at room temperature. Lysate (10 μL) was transferred to a 384-well Opti-plate (PerkinElmer) and 5 μL acceptor mix was added. After a 2-hour incubation in the dark, 5 μL donor mix was added, plate was sealed, and incubated 2 hours at room temperature. Signal was read on an Envision plate reader (PerkinElmer) using standard AlphaLISA settings. Analysis of raw data was carried out in Excel (Microsoft) and Prism (GraphPad). Signal was plotted vs. the decadal logarithm of compound concentration, and IC50 was determined by fitting a 4-parameter sigmoidal concentration response model.
In other experiments, cellular pERK was determined by In-Cell Western. Following compound treatment, cells were washed twice with 200 μL tris buffered saline (TBS) and fixed for 15 minutes with 150 μL 4% paraformaldehyde in TBS. Fixed cells were washed 4 times for 5 minutes with TBS containing 0.1% Triton X-100 (TBST) and then blocked with 100 μL Odyssey blocking buffer (LI-COR) for 60 minutes at room temperature. Primary antibody (PERK, CST-4370, Cell Signaling Technology) was diluted 1:200 in blocking buffer, and 50 μL was added to each well and incubated overnight at 4° C. Cells were washed 4 times for 5 minutes with TBST. Secondary antibody (IR-800CW rabbit, LI-COR, diluted 1:800) and DNA stain DRAQ5 (LI-COR, diluted 1:2000) were added and incubated 1-2 hours at room temperature. Cells were washed 4 times for 5 minutes with TBST. Plates were scanned on a Li—COR Odyssey CLx Imager. Analysis of raw data was carried out in Excel (Microsoft) and Prism (GraphPad). Signal was plotted vs. the decadal logarithm of compound concentration, and IC50 was determined by fitting a 4-parameter sigmoidal concentration response model.

In test [3] the test system is NCI-H358 (K-Ras G12C). Kind of test: CellTiter-Glo cell viability assay, H358. Particulars: Homo sapiens, NCI-H358, 120 h, read-out: H358 Cell Viability IC50, K-Ras G12C, 5-day treatment. The protocol:
as §1, §2

With `CCn1c(-c2cccnc2[C@H](C)OC)c2c3cc(ccc31)-c1cc(O)cc(c1)C[C@H](NC(=O)[C@H](C(C)C)N(C)C(=O)CN(C)C(=O)[C@H]1CN1Cc1ccccc1CO)C(=O)N1CCC[C@H](N1)C(=O)OCC(C)(C)C2` (some centres unmarked) [Example 156], the IC50 is 0.1 to 1 µM in test [1] and < 0.01 µM in test [3]. Moreover, the EC50 in test [2] was < 5 µM.

Regarding `CCn1c(-c2cccnc2[C@H](C)OC)c2c3cc(ccc31)-c1cc(O)cc(c1)C[C@H](NC(=O)[C@H](C(C)C)N(C)C(=O)CN(C)C(=O)[C@@H]1CN1C1COC1)C(=O)N1CCC[C@H](N1)C(=O)OCC(C)(C)C2` (some centres unmarked) [Example 276], the values for the IC50 in test [1] and in test [3] were 1 to 10 µM and 0.01 to 0.1 µM, respectively. In test [2], the half-maximal effective concentration (EC50) is < 5 µM.

Turning to `CCn1c(-c2cccnc2[C@H](C)OC)c2c3cc(ccc31)-c1cc(O)cc(c1)C[C@H](NC(=O)[C@H](C(C)C)N(C)C(=O)CN(C)C(=O)[C@H]1N[C@@H]1C1COC1)C(=O)N1CCC[C@H](N1)C(=O)OCC(C)(C)C2` [Example 284], the IC50 in test [1] was in the range of 1 to 10 µM. The EC50 in test [2] is < 5 µM.

Turning to `CCn1c(-c2cccnc2[C@H](C)OC)c2c3cc(ccc31)-c1cc(O)cc(c1)C[C@H](NC(=O)[C@H](C(C)C)N(C)C(=O)CN(C)C(=O)[C@H]1CN1C1COC1)C(=O)N1CCC[C@H](N1)C(=O)OCC(C)(C)C2` (some centres unmarked) [Example 275], the IC50 in test [1] lay within 1 to 10 µM. In addition, the EC50 in test [2] was < 5 µM.

Turning to `CCn1c(-c2cccnc2[C@H](C)OC)c2c3cc(ccc31)-c1cc(O)cc(c1)C[C@H](NC(=O)[C@H](C(C)C)N(C)C(=O)[C@H]1CCCN1C(=O)[C@H]1CN1)C(=O)N1CCC[C@H](N1)C(=O)OCC(C)(C)C2` [Example 152], the IC50 in test [1] was in the range of 1 to 10 µM. The EC50 in test [2] is < 5 µM.

As to `CCn1c(-c2cccnc2[C@H](C)OC)c2c3cc(ccc31)-c1cc(O)cc(c1)C[C@H](NC(=O)[C@H](C(C)C)N(C)C(=O)[C@H]1CCCN1C(=O)[C@@H]1CN1)C(=O)N1CCC[C@H](N1)C(=O)OCC(C)(C)C2` [Example 151], in test [1], the half-inhibitory concentration (IC50) was in the range of 1 to 10 µM. Besides, the EC50 in test [2] was < 5 µM.

Regarding `CCn1c(-c2cccnc2[C@H](C)OC)c2c3cc(ccc31)-c1cc(O)cc(c1)C[C@H](NC(=O)[C@H](C(C)C)N(C)C(=O)CNC(=O)[C@@H]1CN1)C(=O)N1CCC[C@H](N1)C(=O)OCC(C)(C)C2` [Example 147], in test [1], the IC50 is 1 to 10 µM. Moreover, the EC50 in test [2] is < 5 µM.

With `CCn1c(-c2cccnc2[C@H](C)OC)c2c3cc(ccc31)-c1cc(O)cc(c1)C[C@H](NC(=O)[C@H](C(C)C)N(C)C(=O)[C@H]1CC[C@@H](C)N1C(=O)[C@@H]1CN1)C(=O)N1CCC[C@H](N1)C(=O)OCC(C)(C)C2` [Example 153], the IC50 in test [1] was 1 to 10 µM. The EC50 in test [2] was < 5 µM.

Consider `CCn1c(-c2cccnc2[C@H](C)OC)c2c3cc(ccc31)-c1cc(O)cc(c1)C[C@H](NC(=O)[C@H](C(C)C)N(C)C(=O)CN(C)C(=O)[C@@H]1CN1CCO)C(=O)N1CCC[C@H](N1)C(=O)OCC(C)(C)C2` (some centres unmarked) [Example 162], for which, in test [1], the IC50 lay within 1 to 10 µM. In addition, the EC50 in test [2] is < 5 µM.

`CCn1c(-c2cccnc2[C@H](C)OC)c2c3cc(ccc31)-c1cc(O)cc(c1)C[C@H](NC(=O)[C@H](C(C)C)N(C)C(=O)CN(C)C(=O)[C@H]1N[C@H]1C1CC1)C(=O)N1CCC[C@H](N1)C(=O)OCC(C)(C)C2` [Example 134]: the IC50 in test [1] is 1 to 10 µM. Further, the EC50 in test [2] is < 5 µM.

For the compound `CCn1c(-c2cccnc2[C@H](C)OC)c2c3cc(ccc31)-c1cc(O)cc(c1)C[C@H](NC(=O)[C@H](C(C)C)N(C)C(=O)CN(C)C(=O)[C@H]1CN1CCCN1CCOC1=O)C(=O)N1CCC[C@H](N1)C(=O)OCC(C)(C)C2` (some centres unmarked) [Example 272], the half-maximal inhibitory concentration (IC50) in test [1] fell in the range of 1 to 10 µM. Besides, in test [2], the EC50 was < 5 µM.

With `CCn1c(-c2cccnc2[C@H](C)OC)c2c3cc(ccc31)-c1cc(O)cc(c1)C[C@H](NC(=O)[C@H](C(C)C)N(C)C(=O)[C@H]1CC[C@@H](C)N1C(=O)[C@H]1CN1)C(=O)N1CCC[C@H](N1)C(=O)OCC(C)(C)C2` [Example 154], in test [1], the IC50 is 1 to 10 µM. Further, the EC50 in test [2] is < 5 µM.

Take `CCn1c(-c2cccnc2[C@H](C)OC)c2c3cc(ccc31)-c1cc(O)cc(c1)C[C@H](NC(=O)[C@H](C(C)C)N(C)C(=O)CN(C)C(=O)[C@H]1N[C@H]1C1COC1)C(=O)N1CCC[C@H](N1)C(=O)OCC(C)(C)C2` [Example 282]: the IC50 in test [1] was in the range of 1 to 10 µM. The EC50 in test [2] is < 5 µM.

In the case of `CCn1c(-c2cccnc2[C@H](C)OC)c2c3cc(ccc31)-c1cc(O)cc(c1)C[C@H](NC(=O)[C@H](C(C)C)N(C)C(=O)CN(C)C(=O)[C@H]1CN1CCCN1CCCC1=O)C(=O)N1CCC[C@H](N1)C(=O)OCC(C)(C)C2` (stereo partly drawn) [Example 268, (2R)—N-(2-(((2S)-1-(((6^3S,4S)-1^1-ethyl-25-hydroxy-1^2-(2-((S)-1-methoxyethyl)pyridin-3-yl)-10,10-dimethyl-5,7-dioxo-6^1,6^2,6^3,6^4,6^5,6^6-hexahydro-1^1H-8-oxa-1 (5,3)-indola-6 (1,3)-pyridazina-2 (1,3)-benzenacycloundecaphane-4-yl)amino)-3-methyl-1-oxobutan-2-yl) (methyl)amino)-2-oxoethyl)-N-methyl-1-(3-(2-oxopyrrolidin-1-yl)propyl) aziridine-2-carboxamide], the IC50 in test [1] lay within 1 to 10 µM. The 50% effective concentration (EC50) in test [2] was < 5 µM.

For the compound `CCn1c(-c2cnccc2COC)c2c3cc(ccc31)-c1cc(O)cc(c1)C[C@H](NC(=O)[C@H](C(C)C)N(C)C(=O)CN(C)C(=O)C1CN1)C(=O)N1CCC[C@H](N1)C(=O)OCC(C)(C)C2` (some centres unmarked) [Example 33], the EC50 in test [2] was < 5 µM. Also, the half-inhibitory concentration (IC50) in test [3] was in the range of 0.01 to 0.1 µM.

Turning to `CCn1c(-c2cccnc2[C@H](C)OC)c2c3cc(ccc31)-c1cc(O)cc(c1)C[C@H](NC(=O)[C@H](C(C)C)N(C)C(=O)CN(C)C(=O)[C@H]1CN1CCO)C(=O)N1CCC[C@H](N1)C(=O)OCC(C)(C)C2` (some centres unmarked) [Example 161], the IC50 in test [1] was 1 to 10 µM. In addition, the concentration giving a half-maximal response (EC50) in test [2] was < 5 µM.

As to `CCn1c(-c2cccnc2[C@H](C)OC)c2c3cc(ccc31)-c1cc(O)cc(c1)C[C@H](NC(=O)[C@H](C(C)C)N(C)C(=O)CN(C)C(=O)[C@@H]1CN1CC1COC1)C(=O)N1CCC[C@H](N1)C(=O)OCC(C)(C)C2` (some centres unmarked) [Example 278], the IC50 in test [1] was 1 to 10 µM. Moreover, the half-maximal effective concentration (EC50) in test [2] is < 5 µM.

On to `CCn1c(-c2cccnc2[C@H](C)OC)c2c3cc(ccc31)-c1cc(O)cc(c1)C[C@H](NC(=O)[C@H](C(C)C)N(C)C(=O)CN(C)C(=O)[C@@H]1CN1CC(=O)N(C)C)C(=O)N1CCC[C@H](N1)C(=O)OCC(C)(C)C2` (some centres unmarked) [Example 271], for which the IC50 in test [1] is > 10 µM. Further, in test [2], the EC50 is < 5 µM.

For the compound `CCn1c(-c2cccnc2[C@H](C)OC)c2c3cc(ccc31)-c1cc(O)cc(c1)C[C@H](NC(=O)[C@H](C(C)C)N(C)C(=O)[C@@H](C)N(C)C(=O)[C@H]1CN1)C(=O)N1CCC[C@H](N1)C(=O)OCC(C)(C)C2` [Example 114], in test [1], the IC50 fell in the range of 1 to 10 µM. Further, the EC50 in test [2] is < 5 µM.

On to `CCn1c(-c2cccnc2[C@H](C)OC)c2c3cc(ccc31)-c1cc(O)cc(c1)C[C@H](NC(=O)[C@H](C(C)C)N(C)C(=O)CNC(=O)[C@H]1CN1)C(=O)N1CCC[C@H](N1)C(=O)OCC(C)(C)C2` [Example 140], for which, in test [1], the IC50 fell in the range of 1 to 10 µM. In addition, the EC50 in test [2] was < 5 µM.

Consider `CCn1c(-c2cccnc2[C@H](C)OC)c2c3cc(ccc31)-c1cc(O)cc(c1)C[C@H](NC(=O)[C@H](C(C)C)N(C)C(=O)CN(C)C(=O)[C@@H]1N[C@@H]1C1COC1)C(=O)N1CCC[C@H](N1)C(=O)OCC(C)(C)C2` [Example 281], for which the IC50 in test [1] lay within 0.1 to 1 µM. The concentration for a half-maximal effect (EC50) in test [2] is < 5 µM.
